Source: PubChem BioAssay (NCI)
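Assay format: 96-well plates, 48-hour exposure. At the GI50, growth is halved. TGI is the concentration that stops growth completely.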

Assays:
Assay in all cases: growth of human tumour cells (NCI), 48 h
UO-31 renal = tested on: UO-31 renal
MCF7 breast = tested on: MCF7 breast
HCT-15 colon = tested on: HCT-15 colon
SNB-19 CNS = tested on: SNB-19 CNS
UACC-62 melanoma = tested on: UACC-62 melanoma
SN12C renal = tested on: SN12C renal
OVCAR-5 ovarian = tested on: OVCAR-5 ovarian
786-0 renal = tested on: 786-0 renal
SR leukemia = tested on: SR leukemia
LOX IMVI melanoma = tested on: LOX IMVI melanoma

| SMILES | GI50 (UO-31 renal) | TGI (UO-31 renal) | GI50 (MCF7 breast) | TGI (MCF7 breast) | GI50 (HCT-15 colon) | TGI (HCT-15 colon) | GI50 (SNB-19 CNS) | TGI (SNB-19 CNS) | GI50 (UACC-62 melanoma) | TGI (UACC-62 melanoma) | GI50 (SN12C renal) | TGI (SN12C renal) | GI50 (OVCAR-5 ovarian) | TGI (OVCAR-5 ovarian) | GI50 (786-0 renal) | TGI (786-0 renal) | GI50 (SR leukemia) | TGI (SR leukemia) | GI50 (LOX IMVI melanoma) | TGI (LOX IMVI melanoma) |
| --- | --- | --- | --- | --- | --- | --- | --- | --- | --- | --- | --- | --- | --- | --- | --- | --- | --- | --- | --- | --- |
| C=CCNCCCN1C(=O)c2ccc3c4c(ccc(c24)C1=O)C(=O)N(CCCNCC=C)C3=O | 0.327 µM | 2.29 µM | 0.157 µM | 0.336 µM | 0.413 µM | 2.38 µM | 0.592 µM | 1.96 µM | 0.684 µM | 1.76 µM | 0.399 µM | 1.78 µM | 0.596 µM | 4.94 µM | 0.831 µM | 4.7 µM | 0.407 µM | 2.08 µM | 0.316 µM | 0.97 µM |
| O=C1/C(=C/c2ccc([N+](=O)[O-])o2)Oc2ccc(Br)cc21 | 1.46 µM | 3.02 µM | 2.05 µM | 5.17 µM | 2.62 µM | 8.36 µM | 16.1 µM | 30 µM | 1.84 µM | 4.09 µM | 1.96 µM | 4.53 µM | 2.57 µM | 9.17 µM | 2.47 µM | 5.29 µM | 0.77 µM | 5.52 µM | 1.82 µM | 3.55 µM |
| C/C([O-])=C1\Cc2ccccc2C1=O.C/C([O-])=C1\Cc2ccccc2C1=O.CC[O-].CC[O-].[Ti+4] | 20.2 µM | 70.6 µM | 22 µM | > 100 µM | 11.8 µM | 79.4 µM | 17.4 µM | 38.5 µM | 12.4 µM | 31.6 µM | 21.5 µM | > 81.6 µM | 30.5 µM | 72.9 µM | 20.8 µM | 77.6 µM | 19.1 µM | > 79.9 µM | 13 µM | 32 µM |
| CC(CN1CCN(C)CC1)CN1c2ccccc2Sc2ccc(C(F)(F)F)cc21 (stereo not drawn) | 1.8 µM | 6.4 µM | 1.64 µM | 3.16 µM | 1.81 µM | 3.95 µM | 2.08 µM | 4.32 µM | 2.09 µM | 4.18 µM | 4.07 µM | 14.5 µM | 1.53 µM | 3.13 µM | 1.66 µM | 3.12 µM | 2.01 µM | 5.32 µM | 1.68 µM | 3.25 µM |
| Cc1nc2sc(C(=O)Nc3cccc4ccccc34)c(N)c2cc1C(=O)/C=C/c1ccccc1 | 0.351 µM | 1.03 µM | 0.201 µM | > 50 µM | 0.185 µM | 0.789 µM | 0.534 µM | > 17 µM | 0.235 µM | 3.8 µM | 0.415 µM | 1.88 µM | 0.813 µM | 2.61 µM | 0.25 µM | 0.979 µM | 0.164 µM | > 10.1 µM | 0.183 µM | 0.64 µM |
| COc1ccc(C(=O)/C=C/c2c(C(F)(F)F)nc3sccn23)cc1OC | 8.47 µM | > 100 µM | 0.766 µM | 34.9 µM | 2.54 µM | > 100 µM | 4.25 µM | > 100 µM | 4.85 µM | > 100 µM | 2.98 µM | > 100 µM | 4.18 µM | 39.1 µM | 5.67 µM | > 100 µM | 0.493 µM | > 100 µM | – | – |
